Measurements reported in article PMC2576176, “Direct activation of Transient Receptor Potential Vanilloid 1(TRPV1) by Diacylglycerol (DAG)” (Molecular Pain, 2008).

Biological target: T1, TRPV1 (transient receptor potential vanilloid 1, capsaicin receptor) (Rattus norvegicus, UniProt O35433)
T1 construct: full-length wild-type rat TRPV1 in pcDNA3.1(+), transient transfection in HEK 293 cells; fura-2 Ca2+ imaging
Experiment: fura-2 Ca2+ imaging concentration-response in TRPV1-expressing HEK […] cells; whole-cell patch clamp, cobalt uptake, Y511A mutant and competition with capsaicin
Type: cell-based

T1 sequence (O35433 whole entry): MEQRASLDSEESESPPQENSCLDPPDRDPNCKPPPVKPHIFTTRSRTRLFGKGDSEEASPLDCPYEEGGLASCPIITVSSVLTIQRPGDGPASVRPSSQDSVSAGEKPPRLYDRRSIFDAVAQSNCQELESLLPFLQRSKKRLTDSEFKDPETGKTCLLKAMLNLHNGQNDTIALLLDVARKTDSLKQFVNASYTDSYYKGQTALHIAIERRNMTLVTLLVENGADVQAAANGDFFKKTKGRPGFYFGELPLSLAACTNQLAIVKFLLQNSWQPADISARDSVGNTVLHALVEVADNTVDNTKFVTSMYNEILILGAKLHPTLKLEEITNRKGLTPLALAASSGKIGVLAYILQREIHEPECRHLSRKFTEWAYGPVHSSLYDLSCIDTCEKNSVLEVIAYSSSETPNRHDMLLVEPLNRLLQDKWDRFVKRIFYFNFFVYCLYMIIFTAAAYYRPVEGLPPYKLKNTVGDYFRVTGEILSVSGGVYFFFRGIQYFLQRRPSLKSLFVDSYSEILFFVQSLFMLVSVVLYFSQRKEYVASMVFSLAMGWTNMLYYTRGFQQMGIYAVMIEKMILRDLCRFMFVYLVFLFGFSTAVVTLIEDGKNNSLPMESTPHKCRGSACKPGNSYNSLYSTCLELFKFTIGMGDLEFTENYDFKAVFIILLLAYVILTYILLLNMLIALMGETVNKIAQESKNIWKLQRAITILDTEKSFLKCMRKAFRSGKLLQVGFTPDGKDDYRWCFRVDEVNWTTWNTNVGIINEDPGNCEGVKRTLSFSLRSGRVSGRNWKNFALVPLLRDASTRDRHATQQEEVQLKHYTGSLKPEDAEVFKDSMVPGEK

## CCCCCCCC/C=C\CCCCCCCC(=O)OC[C@H](CO)OC(C)=O [OAG, 1-oleoyl-2-acetyl-sn-glycerol]
  EC50: 13 µM
